This note sets out measurements from US6500841B1, “Inhibitors of farnesyl-protein transferase” (Merck & Co., Inc., priority 1994, dated 2002).

By IC50 is commonly meant the concentration at which inhibition is half-maximal.

Bounds are passed on as bounds.

Test [1] concerns the target Farnesyl-protein transferase (FTase) (UniProt P49354+P49356). Put plainly: In vitro inhibition of Ras farnesyl transferase. The following applies: Ras-CVLS at 3.5 μM, 0.25 μM [3H]FPP; partially purified bovine or recombinant human enzyme; concentration giving 50% inhibition of FTase; read-out: Inhibition of RAS farnesylation, IC50. The format is biochemical. As for the experimental part:
Farnesyl-protein transferase (FTase) from bovine brain was chromatographed on DEAE-Sephacel (Pharmacia, 0-0.8 M NaCl gradient elution), N-octyl agarose (Sigma, 0-0.6 M NaCl gradient elution), and a mono Q HPLC column (Pharmacia, 0-0.3 M NaCl gradient). Ras-CVLS at 3.5 μM, 0.25 μM [^3H]FPP, and the indicated compounds were incubated with either a partially purified bovine enzyme preparation or a recombinant human enzyme preparation. The recombinant human enzyme was prepared as described in Omer, C. A., Kral, A. M., Diehl, R. E., Prendergast, G. C., Powers, S., Allen, C. M., Gibbs, J. B. and Kohl, N. E. (1993) Biochemistry 32:5167-5176. The Frase data presented below in Table 1 reflects the ability of the test compound to inhibit RAS farnesylation in vitro, as described in Pompliano, et al., Biochemistry 31, 3800 (1992).

Test [2] has as its system Ras farnesylation in the v-ras cell line (viral Ha-ras p21). Put plainly: cells. The format is cell-based. To be noted: v-ras cell line expressing viral Ha-ras p21; <1 = >50% inhibition at a 1 μM concentration. As for the experimental part:
The cell line used in this assay was the v-ras line, which expressed viral Ha-ras p21. The assay was performed essentially as described in DeClue, J. E. et. al., Cancer Research 51, 712-717, (1991). Cells in 10 cm dishes at 50-75% confluency were treated with the test compound (final concentration of solvent, methanol or dimethyl sulfoxide, was 0.1%). After 4 hours at 37° C., the cells were labelled in 3 ml methionine-free DMEM supplemeted with 10% regular DMEM, 2% fetal bovine serum and 400 μCi[^35S]methionine (1000 Ci/mmol). After an additional 20 hours, the cells were lysed in 1 ml lysis buffer (1% NP40/20 mM HEPES, pH 7.5/5 mM MgCl2/1 mM DTT/10 μg/ml aprotinen/2 μg/ml leupeptin/2 μg/ml antipain/0.5 mM PMSF) and the lysates cleared by centrifugation at 100,000×g for 45 min. Aliquots of lysates containing equal numbers of acid-precipitable counts were brought to 1 ml with IP buffer (lysis buffer lacking DTF) and immunoprecipitated with the ras-specific monoclonal antibody Y13-259 (Furth, M. E. et. al., J. Virol. 43, 294-304, (1982)). Following a 2 hour antibody incubation at 4° C., 200 μl of a 25% suspension of protein A-Sepharose coated with rabbit anti rat IgG was added for 45 min. The immunoprecipitates were washed four times with IP buffer ([…], pH 7.5/1 mM EDTA/1% Triton X-100.0.5% deoxycholate/0.1%/SDS/0.1 M NaCl) boiled in SDS-PAGE sample buffer and loaded on 13% acrylamide gels. When the dye front reached the bottom, the gel was fixed, soaked in Enlightening, dried and autoradiographed. The intensities of the bands corresponding to farnesylated and nonfarnesylated ras proteins were compared to determine the percent inhibition of farnesyl transfer to protein.

With `CCC(C)[C@@H](CN1Cc2ccccc2C[C@H]1C(=O)N[C@@H](CCSC)C(=O)OC)NC[C@@H](N)CS` (stereo partly drawn) [Compound 1, N-[N′-[2(S)-(2(R)-amino-3-mercaptopropylamino)-3(S)-methylpentyl]-1,2,3,4-tetrahydro-3(S)-isoquinolinecarboxyl]-methionine methyl ester], the values for the IC50 in test [1] and in test [2] were 680 nM and 250 nM, respectively.

As to `CCC(C)[C@@H](CN1Cc2ccccc2C[C@H]1C(=O)N[C@@H](CCSC)C(=O)O)NC[C@@H](N)CS` (stereo partly drawn) [Compound 2, N-[N′-[2(S)-(2(R)-amino-3-mercaptopropylamino)-3(S)-methylpentyl]-1,2,3,4-tetrahydro-3(S)-isoquinolinecarboxyl]-methionine], in test [1], the IC50 stood at 0.39 nM.

In the case of `CC[C@H](C)[C@@H](CN1CCC[C@H]1C(=O)N[C@@H](CCSC)C(=O)OC)NC[C@@H](N)CS` [Compound 3, N-[2(S)-(2(R)-amino-3-mercaptopropylamino)-3(S)-methylpentyl]-prolyl-methionine methyl ester], the half-maximal inhibitory concentration (IC50) in test [1] is 100 nM; in test [2], 250 nM.

Regarding `CC[C@H](C)[C@@H](CN1CCC[C@H]1C(=O)N[C@@H](CCSC)C(=O)O)NC[C@@H](N)CS` [Compound 4, N-[2(S)-(2(R)-amino-3-mercaptopropylamino)-3(S)-methylpentyl]-prolyl-methionine], the IC50 came out at 17 nM in test [1] and 10000 nM in test [2].

On to `CC[C@H]1CCN(C[C@@H](NC[C@@H](N)CS)[C@@H](C)CC)[C@@H]1C(=O)N[C@@H](CCSC)C(=O)OC` [Compound 5, N-[2(S)-(2(R)-amino-3-mercaptopropylamino)-3(S)-methylpentyl]-trans-3-ethyl-prolyl-methionine methyl ester], for which the half-inhibitory concentration (IC50) in test [1] was 520 nM; in test [2], less than 1000 nM.

As for `CC[C@H]1CCN(C[C@@H](NC[C@@H](N)CS)[C@@H](C)CC)[C@@H]1C(=O)N[C@@H](CCSC)C(=O)O` [Compound 6, N-[2(S)-(2(R)-amino-3-mercaptopropylamino)-3(S)-methylpentyl]-trans-3-ethyl-prolyl-methionine], the IC50 in test [1] stood at 10 nM.

As for `CC[C@@H]1CCN(C[C@@H](NC[C@@H](N)CS)[C@@H](C)CC)[C@@H]1C(=O)N[C@@H](CCSC)C(=O)OC` [Compound 7, N-[2(S)-(2(R)-amino-3-mercaptopropylamino)-3(S)-methylpentyl]-cis-3-ethyl-prolyl-methionine methyl ester], the IC50 in test [1] is 2300 nM; in test [2] it was 1000 nM.

`CC[C@@H]1CCN(C[C@@H](NC[C@@H](N)CS)[C@@H](C)CC)[C@@H]1C(=O)N[C@@H](CCSC)C(=O)O` [Compound 8, N-[2(S)-(2(R)-amino-3-mercaptopropylamino)-3(S)-methylpentyl]-cis-3-ethyl-prolyl-methionine]: the IC50 in test [1] worked out at 4.2 nM.

With `CC[C@H](C)[C@@H](CN1CCC[C@H]1C(=O)N[C@@H](CCS(C)(=O)=O)C(=O)OC)NC[C@@H](N)CS` [Compound 9, N-[2(S)-(2(R)-amino-3-mercaptopropylamino)-3(S)-methylpentyl]-prolyl-methionine sulfone methyl ester], the IC50 in test [1] is 950 nM; in test [2], greater than 10000 nM.

As for `CCC(C)C(CN1CCCC1C(=O)NC(CCS(C)(=O)=O)C(=O)O)NCC(N)CS` [Compound 10, N-[2(S)-(2(R)-amino-3-mercaptopropylamino)-3(S)-methylpentyl]-prolyl-methionine sulfone], the IC50 in test [1] amounted to 35 nM.

On to `CCC(C)[C@@H](CN1Cc2ccccc2C[C@H]1C(=O)N[C@H]1CCOC1=O)NC[C@@H](N)CS` (stereo partly drawn) [Compound 13, N-[N′-[2(S)-(2(R)-amino-3-mercaptopropylamino)-3(S)-methylpentyl]-1,2,3,4-tetrahydro-3(S)-isoquinolinecarboxyl]-homoserine lactone], for which the IC50 was 390 nM in test [1] and greater than 10000 nM in test [2].

As for `CCC(C)[C@@H](CN1Cc2ccccc2C[C@H]1C(=O)N[C@@H](CCO)C(=O)O)NC[C@@H](N)CS` (stereo partly drawn) [Compound 14, N-[N′-[2(S)-(2(R)-amino-3-mercaptopropylamino)-3(S)-methylpentyl]-1,2,3,4-tetrahydro-3(S)-isoquinolinecarboxyl]-homoserine], the IC50 in test [1] worked out at 7.6 nM.

As for `CCC(C)C(CN1CCCC1C(=O)NC1CCOC1=O)NCC(N)CS` [Compound 15, N-[2(S)-(2(R)-amino-3-mercaptopropylamino)-3(S)-methylpentyl]-prolyl-homoserine lactone], the IC50 amounted to 1400 nM in test [1] and 50000 nM in test [2].

Take `CC[C@H](C)[C@@H](CN1CCC[C@H]1C(=O)N[C@@H](CCO)C(=O)O)NC[C@@H](N)CS` [Compound 16, N-[2(S)-(2(R)-amino-3-mercaptopropylamino)-3(S)-methylpentyl]-prolyl-homoserine]: the IC50 in test [1] came to 45 nM.

Consider `CCC(C)C(CN1CCCCC1C(=O)NC1CCOC1=O)NCC(N)CS` [Compound 17, N-[2(S)-(2(R)-amino-3-mercaptopropylamino)-3-methylpentyl]-2(S)-pipecolyl-homoserine lactone], for which the IC50 in test [1] is 24000 nM.

As to `CCC(C)C(NCC(N)CS)C(=O)N1CCCC1C(=O)NC1CCOC1=O` [Compound 19, N-[2(R)-amino-3-mercaptopropyl]-isoleucyl-prolyl-homserine lactone], in test [1], the IC50 is 10000 nM.

Turning to `CCC(C)C(NCC(N)CS)C(=O)N1CCCC1C(=O)NC(CCO)C(=O)O` [Compound 20, N-[2(R)-amino-3-mercaptopropyl]-isoleucyl-prolyl-homserine], the IC50 in test [1] is 350 nM.

For `CCC(C)C(NCC(N)CS)C(=O)N1CCCCC1C(=O)NC1CCOC1=O` [Compound 21, N-[2(R)-amino-3-mercaptopropyl]-isoleucyl-2(S)-pipecolyl-homserine lactone], in test [1], the IC50 turned out to be 25000 nM.

Regarding `CCC(C)C(NCC(N)CS)C(=O)N1CCCCC1C(=O)NC(CCO)C(=O)O` [Compound 22, N-[2(R)-amino-3-mercaptopropyl]-isoleucyl-2(S)-pipecolyl-homserine], the IC50 in test [1] came to 340 nM.

Regarding `CCC(C)C(CN1CCCC1C(=O)NC(CCSC)C(=O)OC)N(C)CC(N)CS` [Compound 23, N-[2(S)-(2(R)-amino-3-(mercaptopropyl)methylamino)-3(S)-methylpentyl]-prolyl-methionine methyl ester], the values for the IC50 in test [1] and in test [2] were 1200 nM and less than 1000 nM, respectively.

In the case of `CCC(C)C(CN1CCCC1C(=O)NC(CCSC)C(=O)O)N(C)CC(N)CS` [Compound 24, N-[2(S)-(2(R)-amino-3-(mercaptopropyl)methylamino)-3(S)-methylpentyl]-prolyl-methionine], the IC50 in test [1] is 6 nM.

As to `CCC(C)C(CN1CCCC1C(=O)NC(CCS(C)(=O)=O)C(=O)OC)N(C)CC(N)CS` [Compound 25, N-[2(S)-(2(R)-amino-3-(mercaptopropyl)methylamino)-3(S)-methylpentyl]-prolyl-methionine sulfone methyl ester], the IC50 in test [1] is 10000 nM.

Regarding `CCC(C)C(CN1CCCC1C(=O)NC(CCS(C)(=O)=O)C(=O)O)N(C)CC(N)CS` [Compound 26, N-[2(S)-(2(R)-amino-3-(mercaptopropyl)methylamino)-3(S)-methylpentyl]-prolyl-methionine sulfone], in test [1], the IC50 turned out to be 56 nM.
